Experimental data published in ChEMBL document CHEMBL5727116, “Pyrazole compounds and methods of making and using same” (2019).

Key:
[1] = molecular target: T1, Fatty-acid amide hydrolase 1 (Mus musculus, UniProt O08914); assay: (§1) In Vitro Competitive Activity-Based Protein Profiling: Proteomes (mouse brain membrane fraction or cell lysates for mouse assays; human prefrontal cortex or cell membrane fractions for human assays) (50 μL, 1.0 mg/mL total protein concentration) were preincubated with varying concentrations of inhibitors at 37° C. After 30 min, FP—Rh or HT-01 (1.0 μL, 50 μM in DMSO) was added and the mixture was incubated for another 30 min at 37° C. Reactions were quenched with SDS loading buffer (15 μL-4×) and run on SDS-PAGE. Following gel imaging, serine hydrolase activity was determined by measuring fluorescent intensity of gel bands corresponding to MAGL and FAAH using ImageJ 1.43u software.Preparation of Mouse Brain Proteomes from Inhibitor Treated Mice.Inhibitors were administered to wild-type C57Bl/6J by oral gavage in a vehicle of polyethylene glycol. Each animal was sacrificed 4 h following administration and brain proteomes were prepared and analyzed according to previously established methods (See Niphakis, M. J., et al. (2011) ACS Chem. Neurosci. and Long, J. Z., et al. Nat. Chem. Biol. 5:37-44).
T1 sequence (O08914 whole entry): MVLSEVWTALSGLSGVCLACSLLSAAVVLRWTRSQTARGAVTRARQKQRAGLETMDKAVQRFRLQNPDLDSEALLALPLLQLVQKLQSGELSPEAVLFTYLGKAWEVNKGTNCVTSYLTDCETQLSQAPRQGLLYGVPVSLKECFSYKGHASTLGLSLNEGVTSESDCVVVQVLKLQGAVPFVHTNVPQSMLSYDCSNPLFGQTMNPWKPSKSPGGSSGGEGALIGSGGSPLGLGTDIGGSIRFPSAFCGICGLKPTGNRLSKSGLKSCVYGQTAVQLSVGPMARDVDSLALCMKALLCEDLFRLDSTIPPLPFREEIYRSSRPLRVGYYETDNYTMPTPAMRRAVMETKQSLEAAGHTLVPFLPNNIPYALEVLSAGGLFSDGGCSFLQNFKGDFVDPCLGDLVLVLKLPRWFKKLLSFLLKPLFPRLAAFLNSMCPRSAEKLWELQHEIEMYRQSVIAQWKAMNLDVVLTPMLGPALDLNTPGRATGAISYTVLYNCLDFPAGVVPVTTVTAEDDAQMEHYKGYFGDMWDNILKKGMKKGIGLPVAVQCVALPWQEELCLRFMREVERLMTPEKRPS

Monoglyceride lipase = molecular target: T2, Monoglyceride lipase (Mus musculus, UniProt O35678); assay: as §1
T2 sequence (O35678 whole entry): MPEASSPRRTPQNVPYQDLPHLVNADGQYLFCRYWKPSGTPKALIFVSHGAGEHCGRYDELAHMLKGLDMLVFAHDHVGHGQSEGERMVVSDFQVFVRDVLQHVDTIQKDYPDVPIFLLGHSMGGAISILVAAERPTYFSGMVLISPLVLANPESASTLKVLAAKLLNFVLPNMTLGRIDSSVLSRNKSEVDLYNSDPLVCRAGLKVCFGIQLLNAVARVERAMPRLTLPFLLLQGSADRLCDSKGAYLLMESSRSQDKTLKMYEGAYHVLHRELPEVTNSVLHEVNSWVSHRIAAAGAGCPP

Row | IC50 [1] [nM] | IC50 (Monoglyceride lipase) [nM] | SMILES
1 | < 100 | < 100 | CC(=O)N(C)c1cnn(C(=O)N2CC3CN(Cc4cc(Cl)cc(N5CCC6(CCOCC6)C5)c4)CC3C2)c1 (stereo not given)
2 | < 100 | – | CC(=O)N(C)c1cnn(C(=O)N2CC3CN(Cc4cccc(Oc5ccccn5)c4)CC3C2)c1 (stereo not given)
3 | – | < 100 | CC(=O)N(C)c1cnn(C(=O)N2CCN(Cc3ccc(C(F)(F)F)cc3)CC2)c1
4 | – | < 100 | CC(=O)N(C)c1cnn(C(=O)N2CCN(Cc3ccc(Cl)c(Cl)c3)CC2)c1
